According to US20090233342A1, “HETEROLOGOUS EXPRESSION OF PROTEORHODOPSIN PHOTOSYSTEM” (priority 2007, published 2009):

Columns and labels:
HF10—19P19 cells = assay: Proton-pumping assay (light-driven pH change of cell suspension); assay type: cell-based, Escherichia coli; conditions: PR^+ HF10—19P19 cells; CCCP 25 μM (2 h dark preincubation), DCCD 1 mM (20 h dark preincubation)
Procedure: FIG. 3. Light-activated, PR-enabled photophosphorylation in E. coli. (A) Diagram of the proposed mechanism of PR-dependent ATP synthesis. The effects of the inhibitors used are indicated. (B) Proton-pumping assays with HF10—19P19 cells. pH measurements are expressed as the pH change respect to the pH at time 0 for each sample. CCCP, 25 μM; DCCD, 1 mM. Gray boxes indicate dark periods. (C) ATP assays with HF10—19P19 cells. Results are expressed as the difference between the ATP level in the light and the ATP level in the dark, ΔATP, for each treatment.
Fosmid Library. The HOT—10m fosmid library screened in this work has been described previously (14). It contains DNA from a planktonic sample collected 10 m below the surface at the ALOHA station (22°45′ N, 158°W) of the Hawaii Ocean Time series (HOT) cloned into the copy-controlled pCC1FOS fosmid vector (Epicentre Biotechnologies, Madison, Wis.). The library host, E. coli EPI300 (Epicentre Biotechnologies), supports the copy-control option of pCC1FOS. Screening for PR Expression. High-density colony macroarrays [12,280 clones of the HOT—10m library (ref. 14)] were prepared on a Performa II filter (Genetix Ltd., Boston, Mass.) by using a Q-PixII robot (Genetix Ltd.). […] The color phenotype of individual Tn5-insertion clones was analyzed on LB plates containing chloramphenicol, kanamycin, and 0.02% L-arabinose as above. […]

PR^+ E. coli cells = assay type: cell-based, Escherichia coli; conditions: for effect on photophosphorylation (light-driven ATP synthesis, ΔATP light minus dark): PR^+ HF10—19P19 cells, CCCP 25 μM (2 h dark preincubation), DCCD 1 mM (20 h dark preincubation)

Row | SMILES | effect on light-driven decrease in pH (PR-catalyzed proton translocation) (HF10—19P19 cells) | effect on photophosphorylation (light-driven ATP synthesis, ΔATP light minus dark) (PR^+ E. coli cells) | net gain of ATP by oxidative phosphorylation (PR^+ E. coli cells; 5 min after addition of 0.2% succinate to PR^+ cells in the dark, data not shown)
1 | N#CC(C#N)=NNc1cccc(Cl)c1 [CCCP, carbonylcyanide m-chlorophenylhydrazone] | completely abolished | completely abolished | 
2 | C(=NC1CCCCC1)=NC1CCCCC1 [DCCD, N,N′-dicyclohexylcarbodiimide] | did not affect | completely abolished | 
3 | O=C(O)CCC(=O)O [succinate] |  |  | 9×10^5 ATP molecules per live cell
